Assay results published in publication doi:10.1101/2025.03.14.643404, “A Bivalent Molecular Glue Linking Lysine Acetyltransferases to Oncogene-induced Cell Death” (bioRxiv, 2025).

What was measured:
K422 = experiment: Cell viability, 7 days compound treatment (Cell Titer-Glo), K422; format: cell-based; settings: Homo sapiens, 168 h; K422, 7 days; read-out: IC50 of antiproliferation
Protocol: Fifteen thousand cells were seeded in 100 μl of media per well of a U-bottom 96-well plate and treated with digitally dispensed drugs (Tecan D300e) for the indicated times and doses. After 96 hours, plates were centrifuged for 750 rpm for 3 minutes, and old media was exchanged for 100 μl of fresh media. Drug treatment was then repeated at the indicated doses. 72 hours following media change, cells were transferred to 96 well flat-bottom opaque plates. Viability was measured by adding 25 μL Cell Titer-Glo reagent (Promega G7570) to each well and luminescence was measured (BMG Labtech Pherastar FS). The background luminescence was subtracted, and the signal was normalized to DMSO-treated cells. IC50 measurements on cell lines were calculated using at least three biological replicates by separate cell passages. Fit of dose–response curves to data and statistical analysis was performed using GraphPad PRISM using the four-parameter log(inhibitor) vs response function.

p300^BD-BCL6^BTB = experiment: TR-FRET ternary assay p300BD-BCL6BTB; format: binding, human
Protocol: 10 μL reactions containing 10 nM 6x-His- p300^BD or 6x-His-CBP^BD, 200 nM BiotinylatedAvi-BCL6^BTB, 20 nM streptavidin-FITC (SA1001, Thermo), and 1:400 anti-6x-His-terbium (PerkinElmer 61HI2TLF) in buffer containing 20 mM HEPES pH 7.5, 150 mM NaCl, 0.1% BSA, 0.1% NP-40, and 1 mM TCEP were plated in low-volume 384 well plates. Drugs were digitally dispensed (Tecan D300e) into protein-containing wells, and the plate was allowed to incubate in the dark for 1 hour at room temperature. Emission at 490 nm (terbium) and 520 nm (FITC) was measured on a PHERAstar FS plate reader (BMG Labtech) upon excitation with 337 nm. The ratio of signal at 520 nm to 490 nm was calculated and normalized to DMSO-treated protein.

BCL6 = molecular target: T1, BCL6 (Homo sapiens, UniProt P41182+Q09472+Q92793); experiment: Acetyl-lysine IP and western blot for BCL6 in SUDHL5; format: cell-based; settings: SUDHL5, 1 hour
T1 construct: endogenous in cells; host or cells: SUDHL5
Protocol: Cells were plated at 1M/mL and treated with compound or DMSO at indicated timepoints and doses. Cells were harvested on ice, counted, normalized by count, and washed 1X in PBS containing compound or DMSO. For only BCL6 immunoprecipitation, compound or DMSO was maintained in nuclear preparation buffers at identical concentration to cell treatment throughout. Nuclei were prepared by incubation in Buffer A (25 mM HEPES pH 7.5, 25 mM KCl, 0.05 mM EDTA, 1mM MgCl2, 10% glycerol, 0.1% NP-40) supplemented with protease inhibitors (1 mM PMSF, ~[…] pepstatin, aprotinin, and leupeptin) at 4 °C for 7 mins. Nuclear preparation was confirmed by Trypan blue staining and nuclei were pelleted by centrifugation for 5 min at 500g at 4 °C. Pelleted nuclei were resuspended in IP Buffer (25 mM HEPES pH 7.5, 150mM KCl, 0.05 mM EDTA, 1 mM MgCl2, 10% glycerol, 0.1% NP-40) supplemented with protease inhibitors and 1 μL/250 units benzonase (Sigma E1014). Chromatin was removed by incubation with rotation for 30 min and nuclei sheared using a 27-gauge needle exactly five times. […]
Cells were plated at 1M/mL and treated with drug at indicated timepoints and doses. […] After 10 min centrifugation at 14,000g and 4 °C, the supernatant was collected and protein concentration was measured by Bradford. […] ImageStudio (Licor) was used for blot imaging and quantification.

T1 sequence (Q09472 2-2414 limits assumed, other chains not shown): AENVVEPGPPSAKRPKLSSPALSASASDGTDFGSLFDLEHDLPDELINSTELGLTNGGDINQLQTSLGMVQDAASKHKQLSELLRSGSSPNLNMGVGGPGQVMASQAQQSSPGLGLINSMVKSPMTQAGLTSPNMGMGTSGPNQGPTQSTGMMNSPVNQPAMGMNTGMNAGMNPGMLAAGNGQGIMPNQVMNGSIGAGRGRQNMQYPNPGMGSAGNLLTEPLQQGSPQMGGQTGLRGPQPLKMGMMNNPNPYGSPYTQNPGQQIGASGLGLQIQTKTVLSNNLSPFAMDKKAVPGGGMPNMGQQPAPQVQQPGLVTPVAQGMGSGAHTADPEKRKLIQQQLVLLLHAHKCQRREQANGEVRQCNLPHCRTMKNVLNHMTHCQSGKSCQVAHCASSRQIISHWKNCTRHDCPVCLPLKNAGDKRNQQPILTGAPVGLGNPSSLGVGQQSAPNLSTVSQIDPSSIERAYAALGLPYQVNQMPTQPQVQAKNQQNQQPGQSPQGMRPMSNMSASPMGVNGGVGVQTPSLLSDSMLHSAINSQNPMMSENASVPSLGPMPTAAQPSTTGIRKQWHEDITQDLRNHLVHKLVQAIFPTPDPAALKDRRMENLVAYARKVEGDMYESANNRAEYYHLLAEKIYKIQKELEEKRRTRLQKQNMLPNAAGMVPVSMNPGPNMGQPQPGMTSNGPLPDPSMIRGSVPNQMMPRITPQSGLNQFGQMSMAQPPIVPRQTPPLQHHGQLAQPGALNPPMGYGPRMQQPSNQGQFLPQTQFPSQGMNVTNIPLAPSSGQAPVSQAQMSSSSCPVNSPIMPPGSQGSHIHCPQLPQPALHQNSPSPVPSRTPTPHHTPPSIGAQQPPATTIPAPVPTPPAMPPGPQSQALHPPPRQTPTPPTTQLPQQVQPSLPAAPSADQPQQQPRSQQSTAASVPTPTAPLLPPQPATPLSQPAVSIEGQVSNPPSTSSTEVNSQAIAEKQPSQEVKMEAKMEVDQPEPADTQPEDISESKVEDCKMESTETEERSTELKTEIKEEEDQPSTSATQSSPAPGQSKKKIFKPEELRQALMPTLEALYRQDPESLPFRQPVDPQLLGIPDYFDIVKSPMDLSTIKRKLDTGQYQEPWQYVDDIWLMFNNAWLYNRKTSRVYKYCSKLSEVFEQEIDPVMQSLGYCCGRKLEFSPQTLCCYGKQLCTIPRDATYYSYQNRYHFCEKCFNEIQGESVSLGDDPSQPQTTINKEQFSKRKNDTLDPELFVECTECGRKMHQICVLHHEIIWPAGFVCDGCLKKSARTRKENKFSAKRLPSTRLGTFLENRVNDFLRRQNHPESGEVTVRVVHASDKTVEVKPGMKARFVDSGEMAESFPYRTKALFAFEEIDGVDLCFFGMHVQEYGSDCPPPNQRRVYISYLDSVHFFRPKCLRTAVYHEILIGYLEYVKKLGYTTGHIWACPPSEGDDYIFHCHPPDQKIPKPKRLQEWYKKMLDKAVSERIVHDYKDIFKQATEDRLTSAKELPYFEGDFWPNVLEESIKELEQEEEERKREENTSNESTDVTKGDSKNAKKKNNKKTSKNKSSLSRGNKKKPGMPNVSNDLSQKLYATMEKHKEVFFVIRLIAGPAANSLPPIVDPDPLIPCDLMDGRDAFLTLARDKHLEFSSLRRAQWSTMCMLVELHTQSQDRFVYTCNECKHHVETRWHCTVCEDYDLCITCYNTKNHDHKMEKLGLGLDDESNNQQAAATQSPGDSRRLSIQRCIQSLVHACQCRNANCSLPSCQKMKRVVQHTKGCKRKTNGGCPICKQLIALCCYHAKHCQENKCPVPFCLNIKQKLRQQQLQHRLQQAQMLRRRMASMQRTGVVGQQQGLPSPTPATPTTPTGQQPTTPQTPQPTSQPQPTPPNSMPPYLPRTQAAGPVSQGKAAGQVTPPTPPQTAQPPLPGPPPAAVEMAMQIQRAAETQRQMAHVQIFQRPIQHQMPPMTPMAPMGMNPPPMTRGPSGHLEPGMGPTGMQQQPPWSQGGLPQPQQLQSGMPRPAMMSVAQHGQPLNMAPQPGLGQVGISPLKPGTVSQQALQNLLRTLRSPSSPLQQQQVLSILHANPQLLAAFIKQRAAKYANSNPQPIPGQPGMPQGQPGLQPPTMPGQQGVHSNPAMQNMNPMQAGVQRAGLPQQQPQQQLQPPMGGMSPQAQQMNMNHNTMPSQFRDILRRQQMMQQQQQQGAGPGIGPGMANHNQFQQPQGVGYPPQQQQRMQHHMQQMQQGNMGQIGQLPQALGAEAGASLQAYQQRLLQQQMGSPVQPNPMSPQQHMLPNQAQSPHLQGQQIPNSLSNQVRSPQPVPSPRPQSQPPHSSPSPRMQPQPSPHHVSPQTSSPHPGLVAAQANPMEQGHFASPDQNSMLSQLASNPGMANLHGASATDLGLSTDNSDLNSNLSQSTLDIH
T1 sequence (Q92793 2-2442 limits assumed, other chains not shown): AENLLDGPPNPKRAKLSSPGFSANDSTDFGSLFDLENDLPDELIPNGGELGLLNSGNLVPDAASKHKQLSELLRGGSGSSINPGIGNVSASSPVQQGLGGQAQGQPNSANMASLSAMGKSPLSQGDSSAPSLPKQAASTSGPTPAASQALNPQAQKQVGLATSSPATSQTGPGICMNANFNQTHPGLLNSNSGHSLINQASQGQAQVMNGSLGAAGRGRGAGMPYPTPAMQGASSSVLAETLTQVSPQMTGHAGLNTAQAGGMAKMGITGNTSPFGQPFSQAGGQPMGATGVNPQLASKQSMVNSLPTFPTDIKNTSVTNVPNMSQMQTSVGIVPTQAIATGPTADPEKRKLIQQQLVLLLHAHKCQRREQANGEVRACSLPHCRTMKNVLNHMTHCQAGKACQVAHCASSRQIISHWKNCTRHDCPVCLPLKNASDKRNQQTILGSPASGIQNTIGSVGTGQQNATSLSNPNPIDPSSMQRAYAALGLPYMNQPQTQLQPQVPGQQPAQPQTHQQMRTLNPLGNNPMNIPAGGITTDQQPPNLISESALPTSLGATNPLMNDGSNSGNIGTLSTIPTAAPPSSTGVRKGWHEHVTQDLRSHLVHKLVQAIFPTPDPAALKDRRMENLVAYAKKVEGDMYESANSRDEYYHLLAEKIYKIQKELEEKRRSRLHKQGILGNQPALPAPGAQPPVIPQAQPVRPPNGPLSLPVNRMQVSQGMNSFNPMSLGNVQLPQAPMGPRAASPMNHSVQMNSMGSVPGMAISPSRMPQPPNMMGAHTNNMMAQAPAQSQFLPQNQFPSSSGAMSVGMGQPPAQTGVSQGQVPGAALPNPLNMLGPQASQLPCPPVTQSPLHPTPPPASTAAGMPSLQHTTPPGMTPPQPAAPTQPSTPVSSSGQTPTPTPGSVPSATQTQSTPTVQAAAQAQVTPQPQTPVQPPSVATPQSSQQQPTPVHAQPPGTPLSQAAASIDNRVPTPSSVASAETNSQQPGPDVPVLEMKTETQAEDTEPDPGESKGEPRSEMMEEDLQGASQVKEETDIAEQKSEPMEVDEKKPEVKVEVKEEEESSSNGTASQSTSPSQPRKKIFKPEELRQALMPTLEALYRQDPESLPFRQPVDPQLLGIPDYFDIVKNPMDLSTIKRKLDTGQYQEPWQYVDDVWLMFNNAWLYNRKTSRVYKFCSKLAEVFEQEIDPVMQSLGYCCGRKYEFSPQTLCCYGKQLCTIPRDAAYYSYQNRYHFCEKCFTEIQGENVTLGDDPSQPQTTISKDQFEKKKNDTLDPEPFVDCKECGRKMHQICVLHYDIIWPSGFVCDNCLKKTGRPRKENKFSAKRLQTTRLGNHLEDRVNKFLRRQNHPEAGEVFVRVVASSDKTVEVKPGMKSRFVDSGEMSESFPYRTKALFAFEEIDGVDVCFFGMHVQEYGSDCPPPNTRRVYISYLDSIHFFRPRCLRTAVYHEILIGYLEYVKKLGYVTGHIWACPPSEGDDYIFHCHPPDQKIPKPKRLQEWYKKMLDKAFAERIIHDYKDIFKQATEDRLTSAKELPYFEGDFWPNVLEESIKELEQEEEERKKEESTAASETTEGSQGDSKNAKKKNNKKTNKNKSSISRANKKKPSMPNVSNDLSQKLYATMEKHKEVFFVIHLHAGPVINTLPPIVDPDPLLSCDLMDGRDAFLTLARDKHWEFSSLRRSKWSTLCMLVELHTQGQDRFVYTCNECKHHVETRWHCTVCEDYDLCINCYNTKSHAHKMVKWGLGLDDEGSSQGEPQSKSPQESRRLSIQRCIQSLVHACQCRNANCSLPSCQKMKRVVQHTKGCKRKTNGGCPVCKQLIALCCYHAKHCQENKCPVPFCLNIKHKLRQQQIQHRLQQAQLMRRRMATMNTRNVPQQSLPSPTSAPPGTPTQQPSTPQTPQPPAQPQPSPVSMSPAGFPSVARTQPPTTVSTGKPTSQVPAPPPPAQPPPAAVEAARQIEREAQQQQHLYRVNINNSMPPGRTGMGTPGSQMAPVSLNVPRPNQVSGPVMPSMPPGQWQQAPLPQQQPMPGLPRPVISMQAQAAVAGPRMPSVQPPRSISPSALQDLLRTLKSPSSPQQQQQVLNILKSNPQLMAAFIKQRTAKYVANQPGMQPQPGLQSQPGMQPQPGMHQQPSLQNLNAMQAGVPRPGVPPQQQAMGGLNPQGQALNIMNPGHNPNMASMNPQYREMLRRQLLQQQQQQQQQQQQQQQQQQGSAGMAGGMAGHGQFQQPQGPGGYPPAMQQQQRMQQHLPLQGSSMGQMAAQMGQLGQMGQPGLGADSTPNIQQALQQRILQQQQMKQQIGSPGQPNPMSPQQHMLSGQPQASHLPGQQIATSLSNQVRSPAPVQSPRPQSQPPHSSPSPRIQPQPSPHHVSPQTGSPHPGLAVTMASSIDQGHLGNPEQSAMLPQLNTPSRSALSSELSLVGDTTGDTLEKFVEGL

concentration at which increase of acetylated BCL6 begins (BCL6): 1 nM
SMILES: CNC(=O)COc1cc2cc(Nc3nc(N4CCC(C(=O)N5CCN(CCC(=O)N6CCC(n7nc(N8CCCc9cc(-c%10cnn(C)c%10)c(C(F)F)cc98)c8c7CCN(C(=O)NC)C8)CC6)CC5)CC4)ncc3Cl)cc(OC)c2n(C)c1=O [TCIP3]
IC50 (K422): 4 nM
TR-FRET signal AUC, times higher than NEG1 (p300^BD-BCL6^BTB): 23 times
TR-FRET signal AUC, times higher than NEG2 (p300^BD-BCL6^BTB): 18 times
